Measurements from patent US20170042869A1, “Methods for limiting acute kidney injury” (VANDERBILT UNIVERSITY, priority 2014, published 2017).

Tests used:
Format in all cases: in vivo
[1] = system: ischemia-reperfusion model of AKI in mice (IR-AKI); test: IR-AKI mice, pyridoxamine pre-treatment, renal injury and oxidative stress 3 days after injury; conditions: pre-treatment 1000 mg/kg/day, day 3 after injury, vs vehicle
Procedure: FIG. 5. Dose dependent effect of pre-treatment with PYR at 500 and 1000 mg/kg/day on renal injury 3 days after I/R-AKI. (A) Experimental model, Mice underwent U-IR and were pre-treated for 3 days with either vehicle control, PYR 500 mg/kg/day or PYR 1000 mg/kg/day in drinking water supplemented with 200 mg PYR twice a day (or vehicle) by oral gavage for 3 days after the surgical procedure. Mice were sacrificed and kidney harvested for analysis 3 days after the initial injury. (B, C) Renal Kim1 and NGAL mRNA expression 3 days after injury expressed as the ratio to Gapdh mRNA control. (D) Tubular injury score 3 days after injury in the OM (0-4, arbitrary units). (E) Representative images for PAS stained tissues (outer medulla; scale bars, 50 μm) F) Expression renal isofuran/isoprostane ratios after
PYR treatment with 500 and 1000 mg/kg/day 3 days after LI-IR. Results expressed as mean +/−SEM, n=9-10 mice per group. Results only indicated if ANOVA p<0.05: *p<0.05, **p<0.01, ***p<0.001, #p<0.0001. Comparison with uninjured (no brackets), or vehicle or PYR 500 mg/kalday treated mice (brackets).
(§1) Two doses of pyridoxamine were administered orally, 500 mg/kg/day and 1000 mg/kg/day to an experimental model of AM, the surgical, ischemia-reperfusion model of AKI in mice (IR-AKI) [Cianciolo Cosentino et al, 2013; Skrypnyk et al, 2013], a model of renal ischemia that has been used extensively to model ischemic injury associated with cardiac surgery acquired (CSA-AKI) [Thiele et al, 2015]. For the bulk of the studies pyridoxamine was administered for 3 days prior to the induction of AKI and was continued until completion of the studies. In some experiments, pyridoxamine was administered 24 hours after the induction of AM.
To determine whether there was also a dose-dependent effect of pyridoxamine at 500 and 1000 mg/kg/day on early renal injury after IR-AKI, mice were sacrificed on day 3 after injury (FIG. 5A) to evaluate renal injury and renal oxidative stress levels.

[2] = Plasma pyridoxamine levels after I/R-AKI; conditions: mice with IR-AKI; for average pyridoxamine plasma levels: 1000 mg/kg/day
Procedure: FIG. 6. Plasma PYR levels after I/R-AKI. (A) Mice underwent U-IR and were pre-treated for 3 days with vehicle control, PYR 500 mg/kg/day or PYR 1000 mg/kg/day in drinking water supplemented with 200 mg PYR twice a day (or vehicle) by oral gavage for 3 days after the surgical procedure. Evaluation of PYR plasma levels on Day 3 after injury. (B) Mice underwent U-IR followed by contralateral nephrectomy 8 days after the initial surgery. All mice were pre-treated with vehicle control, PYR 500 mg/kg/day or 1000 mg/kg/day in drinking water supplemented with 200 mg PYR twice a day (or vehicle) by oral gavage for 3 days after each surgical procedure. Treatment was continued for 28 days at which point mice underwent venesection for analysis of plasma PYR levels. Evaluation of PYR plasma levels on Day 28 after injury. Results expressed as mean +/−SEM, n=9-10 mice per group. Results only indicated if ANOVA p<0.05: *p<0.05, **p<0.01, ***p<0.001, #p<0.0001. Comparison with uninjured controls (no brackets), or vehicle or PYR 500 mg/kg/day treated mice (brackets).

[3] = system: ischemia-reperfusion model of AKI in mice (IR-AKI); test: IR-AKI mice, pyridoxamine treatment started 24 hours after injury, renal fibrosis and injury markers at 28 days; conditions: 1000 mg/kg/day started 24 hours after injury, day 28
Procedure: FIG. 3. […] (A) Experimental model. Mice underwent U-IR followed by contralateral nephrectomy 8 days after the initial surgery. Mice were treated with PYR 1000 mg/kg/day starting 24 hours after the initial injury supplemented with 200 mg PYR twice a day (or vehicle) by oral gavage for 3 days after each surgical procedure. Treatment was continued for 28 days at which point mice were sacrificed and kidney harvested for analysis. (B-D) Expression of renal fibrosis markers Col1α1, α-SMA and Col3α1 mRNA relative to Gapdh mRNA control. (E) Quantification of Sirius red stained (% total area). (F) Representative images for Sirius red stained tissues (outer medulla; scale bars, 50 μm). Results expressed as mean +/−SEM, n=8-10/group. Results indicated if ANOVA p<0.05: *p<0.05, **p<0.01, ***p<0.001, #p<0.0001. Comparison with uninjured (no brackets), or vehicle or delayed PYR treatment (brackets).
FIG. 4. No effects of treatment with PYR at 1000 mg/kg/day started 24 hours after injury on markers of renal injury 28 days after I/R-AKI. (A, B) Expression of renal injury markers Kim1 and NGAL mRNA relative to Gapdh mRNA control on day 28 after injury. Results expressed as mean +/−SEM, n=8-10/group. Results indicated if ANOVA p<0.05: *p<0.05, **p<0.01, ***p<0.001, #p<0.0001. Comparison with uninjured (no brackets), or vehicle or delayed PYR treatment (brackets).
as §1
To determine whether delayed treatment with the high dose of pyridoxamine was effective in reducing post-injury fibrosis after IR-AKI, mice were treated with PYR 1000 mg/kg/day starting 24 hours after the initial injury supplemented with 200 mg PYR twice a day (or vehicle) by oral gavage for 3 days after each surgical procedure. Treatment was continued for 28 days at which point mice were sacrificed and kidney harvested for analysis (FIG. 3A).

[4] = system: ischemia-reperfusion model of AKI in mice (IR-AKI); test: IR-AKI mice, pyridoxamine pre-treatment, renal fibrosis and injury markers 28 days after injury; conditions: day 28 after injury
Procedure: FIG. 1. Dose dependent effects of pre-treatment with pyridoxamine (PYR) at 500 and 1000 mg/kg/day on renal fibrosis 28 days after I/R-AKI. (A) Experimental model. Mice underwent unilateral renal pedicle clamping (U-IR) followed by contralateral nephrectomy 8 days after the initial surgery. All mice were pre-treated for 3 days with either vehicle control, or PYR 500 and 1000 mg/kg/day in drinking water supplemented with 200 mg PYR twice a day (or vehicle) by oral gavage for 3 days after each surgical procedure.
Treatment was continued for 28 days at which point mice were sacrificed and kidney harvested for analysis. (B-D) Expression of renal fibrosis markers Col1α1, α-SMA and Col3α1 mRNA relative to Gapdh mRNA control. (E) Quantification of Sirius red stained (% total area). (F) Representative images for Sirius red stained tissues (outer medulla; scale bars, 50 μm). Results expressed as mean +/−SEM, n=9-10 mice per group. Results only indicated if ANOVA p<0.05: *p<0.05, **p<0.01, ***p<0.001, #p<0.0001. Comparison with uninjured controls (no brackets), or vehicle treated mice (brackets).
FIG. 2. Dose dependent effects of pre-treatment with PYR at 500 and 1000 mg/kg/day on markers of renal injury 28 days after UR-AM. Effect of PYR on Kim1 (A) and NGAL (B) mRNA on day 28 after injury. Results expressed as mean +/−SEM, n=9-10 mice per group. Results only indicated if ANOVA p<0.05: *p<0.05, **p<0.01, ***p<0.001, #p<0.0001. Comparison with uninjured controls (no brackets), or vehicle treated mice (brackets).
as §1
The injury models and treatments were administered as illustrated in FIG. 1A. Mice underwent unilateral renal pedicle clamping (LT-IR) followed by contralateral nephrectomy 8 days after the initial surgery. All mice were pre-treated for 3 days with either vehicle control, or PYR 500 and 1000 mg/kg/day in drinking water supplemented with 200 mg PYR twice a day (or vehicle) by oral gavage for 3 days after each surgical procedure. Treatment was continued for 28 days at which point mice were sacrificed and kidneys harvested for analysis.

[5] = pre-treatment 500 and 1000 mg/kg/day oral, kidney, vs vehicle

- average pyridoxamine plasma levels ([2]; day 3): ~6 µg/mL
- average pyridoxamine plasma levels ([2]; day 28): ~6 µg/mL
- plasma pyridoxamine levels, dose dependence ([2]; 500 vs 1000 mg/kg/day, days 3 and 28): dose-dependent increase
SMILES: Cc1ncc(CO)c(CN)c1O [pyridoxamine]
- histological tubular injury scores ([1]; outer medulla): reduction
- renal NGAL mRNA expression [1]: significant, dose-dependent decrease
- renal levels of oxidative stress marker isofuran-to-isoprostane ratio [1]: reduction
- expression of injury marker Kim1 [3]: did not lower expression
- expression of injury marker NGAL [3]: did not lower expression
- expression of pro-fibrotic gene Col3α1 mRNA [3]: lowered expression
- expression of pro-fibrotic gene αSMA mRNA [3]: lowered expression
- post-injury fibrosis (Sirius red staining) [3]: decreased post-injury fibrosis
- expression of injury marker Kim1 ([3]; listed as PYR): No effects
- expression of injury marker NGAL ([3]; listed as PYR): No effects
- post-injury fibrosis (Sirius red staining) ([3]; listed as PYR): Beneficial effects
- expression of pro-fibrotic gene Col1α1 mRNA [4, 5]: lowered expression
- expression of pro-fibrotic gene Col3α1 mRNA [4, 5]: lowered expression
- expression of pro-fibrotic gene αSMA mRNA [4, 5]: lowered expression
- level of fibrosis (Sirius red staining) [4, 5]: decreased level of fibrosis
- expression of renal injury marker Kim1 ([4]; pre-treatment 500 and 1000 mg/kg/day): lowered expression
